Consider 15 compounds from PMC11973506, “In vitro α–Glucosidase Inhibition, Cytotoxicity, SAR, Swiss ADME Prediction and Molecular Docking Study of New N–Substituted Hydantoin Derivatives” (ChemistryOpen, 2025).

Like-named read-outs stand apart in the source and are kept apart here.

For series [1], the target named is T1, Saccharomyces cerevisiae α-glucosidase (Saccharomyces cerevisiae, UniProt P53341).
T1 construct: purchased
Nature of the series: In vitro α-glucosidase inhibition assay (p-nitrophenyl glucopyranoside substrate). The series is classed as biochemical. Here is the method: Using Saccharomyces cerevisiae α‐glucosidase enzymes, hydantoin derivatives 8 a–o were evaluated for them for their in vitro α‐glucosidase activity.
The α‐glucosidase inhibitions of compounds 8 a–o were screened as described in our previous method.[21] Epigallacatechin gallate (EGCG) was used as positive control. The α‐glucosidase enzyme (Saccharomyces Cerevisiae, 50 μg/mL) and substrate (p‐nitrophenyl glucopyranoside) were dissolved in a solution of potassium phosphate buffer (pH 6.3, 3 mM). Final compounds 8 a–o were dissolved in DMSO to give a final concentration of 200 μM. […] All samples (5 μL), enzyme (20 μL), and potassium phosphate buffer (60 μL) were added to the 96‐well plate and incubated at 37 °C for 5 min. Thereafter, the substrate (10 μL, 4 mM) was added to the mixture and incubated at 37 °C for 20 min followed by the addition of sodium carbonate (25 μL). Finally, the absorbance readings were measured by BioTek® PowerWave XS spectrophotometer (Winooski, VT, USA). Since the enzyme and substrate controls […], the percentage of α‐glucosidase inhibition was calculated using follows: (1) %α-glucosidaseinhibition=(A405nmofcontrol-A405nmoftestsample)/A405nmofcontrol×100

Another series has as its system Caco2 cell line. The following applies: 48 hours of treatment with 100 μM, below 2000 considered toxic. Here is the method: Cytotoxicity screening is one of the important tools used to determine whether a compound is toxic or not. Furthermore, these assays are performed by testing the ability of cells to continue proliferating in the presence of a test compound or substance over a specific period.[23] All hydantoin title compounds 8 a–o were screened for their in vitro cytotoxicity activity using the Caco2 cell line against the untreated (UT) and melphalan as a control. […] Any compound with living cells below […] was considered to be toxic.
The human colorectal adenocarcinoma cell line (CaCO2) used to screen the cytotoxicity of compounds 8 a–o was based on our initially described protocol.[21] […] Samples were sonicated if solubility was a problem and stored at 4 °C until required. Melphalan (100 mM stock) was prepared in DMSO and used as a positive control at a final concentration of 30 μM. The cells (4000 cells/well) were seeded in 96 well plates at 100 μL aliquots and were left for 24 hours to attach. After 24 hours, the 100 μL of the medium was treated with 100 μL aliquots of 200 μM dilution. Cells were maintained in 10 cm culture dishes in 10 mL complete medium (DMEM‐LG+10 % FBS+1× penicillin/streptomycin) and incubated for 48 hours at 37 °C, 5 % CO2, and 100 % relative humidity until needed. After incubation 100 μL staining solution Hoechst (5 μg/mL) and 10 μL PI solution were stained on the plates before they were incubated again for 30 min. Quantification of live and dead cells was performed using the ImageXpress Micro XLS Widefield Microscope (Molecular Devices) using a 10× Plan Fluor objective and DAPI and Texas Red filter cubes. Acquired images were analyzed using the MetaXpress software and Multi‐Wavelength Cell Scoring Application Module. Acquired data was transferred to an Excel spreadsheet and data was analyzed and processed.

[2] abbreviates: text statement for 50 and 100 μM together.

T1 sequence (P53341 whole entry): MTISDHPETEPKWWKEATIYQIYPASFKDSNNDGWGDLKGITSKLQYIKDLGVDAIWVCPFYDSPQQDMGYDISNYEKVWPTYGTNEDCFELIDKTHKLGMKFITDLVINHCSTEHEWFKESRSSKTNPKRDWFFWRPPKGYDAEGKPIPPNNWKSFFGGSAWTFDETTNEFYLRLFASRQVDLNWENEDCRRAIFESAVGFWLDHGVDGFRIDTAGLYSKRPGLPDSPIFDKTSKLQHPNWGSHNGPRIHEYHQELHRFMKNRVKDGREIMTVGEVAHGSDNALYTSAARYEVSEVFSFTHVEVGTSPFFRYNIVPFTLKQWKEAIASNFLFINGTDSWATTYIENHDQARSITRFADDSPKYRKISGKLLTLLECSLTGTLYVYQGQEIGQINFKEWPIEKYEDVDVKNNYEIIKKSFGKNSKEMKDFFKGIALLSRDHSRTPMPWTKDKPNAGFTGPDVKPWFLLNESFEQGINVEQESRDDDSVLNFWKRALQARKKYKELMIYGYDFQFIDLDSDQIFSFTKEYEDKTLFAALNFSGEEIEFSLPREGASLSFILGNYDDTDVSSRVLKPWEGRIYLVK

What is called inhibition is the relative decrease from the control value, in per cent. The compound `COC(=O)C(NC(=O)CN1C(=O)N/C(=C\c2ccc(OC)cc2)C1=O)C(C)C` (stereo not drawn) [8 c] displayed an inhibition at 50 µM in series [1] (50 μM) of 3.37 ± 11.5%. For the same compound, the inhibition at 100 µM in series [1] (100 μM) was 9.51 ± 19.7%. This compound also displayed an inhibition at 200 µM in series [1] (200 μM) of 41 ± 2.62%.

Compound `CCCC(NC(=O)CN1C(=O)N/C(=C\c2ccc(C)cc2)C1=O)C(=O)OC` (stereo not drawn) [8 h] displayed an inhibition at 10 µM in series [1] (10 μM) of 3.45 ± 13.6%. Further, the inhibition at 50 µM in series [1] (50 μM) came to 16.3 ± 15.2%. For the same compound, in series [1] (100 μM), the inhibition at 100 µM stood at 25.4 ± 7.88%. Moreover, in series [1] (200 μM), the inhibition at 200 µM was found to be 42.8 ± 4.3%.

For the compound `COC(=O)C(C)NC(=O)CN1C(=O)N/C(=C\c2ccc(OC)cc2)C1=O` (stereo not drawn) [8 a], the figures for the “Cytotoxicity, live cells” value in the series on Caco2 cell line and in the series with Caco2 cell line (listed as 8a) were 2605 and 2605 ± 293, respectively. This compound gave an inhibition at 200 µM in series [1] (200 μM) of 51.6 ± 2.92%. Also, the α-glucosidase inhibition result was “moderate inhibition” in series [1] (200 μM) and “no activity” in series [1] (setting [2]).

Turning to `CCC(NC(=O)CN1C(=O)N/C(=C\c2ccc(C)cc2)C1=O)C(=O)OC` (stereo not drawn) [8 f], the “Cytotoxicity, live cells” value in the series with Caco2 cell line stood at 2230 ± 570. For the same compound, the inhibition at 10 µM in series [1] (10 μM) was 4.92 ± 18%. The same compound came in with an inhibition at 50 µM in series [1] (50 μM) of 8.87 ± 21.3%. Further, the inhibition at 100 µM in series [1] (100 μM) is 12.2 ± 10.9%.

In the case of `CCC(NC(=O)CN1C(=O)N/C(=C\c2ccc3c(c2)OCO3)C1=O)C(=O)OC` (stereo not drawn) [8 m], the α-glucosidase inhibition entry in series [1] (10 μM) was “‐”. Further, in series [1] (50 μM), the inhibition at 50 µM was 6.94 ± 10.9%. Further, the inhibition at 100 µM in series [1] (100 μM) is 11.2 ± 11%. Further, the inhibition at 200 µM in series [1] (200 μM) turned out to be 37.6 ± 10%.

For `CCOC(=O)C(C)NC(=O)CN1C(=O)N/C(=C\c2ccc(C)cc2)C1=O` (stereo not drawn) [8 i], in the series on Caco2 cell line, the “Cytotoxicity, live cells” value was 2595 ± 289. The α-glucosidase inhibition entry is “‐” in series [1] (10 μM), “‐” in series [1] (50 μM), “‐” in series [1] (100 μM) and “no activity” in series [1] (setting [2]). For the same compound, in series [1] (200 μM), the inhibition at 200 µM was 44.6 ± 0.99%.

For `COC(=O)C(C)NC(=O)CN1C(=O)N/C(=C\c2ccc(C)cc2)C1=O` (stereo not drawn) [8 e], in the series with Caco2 cell line, the “Cytotoxicity, live cells” value was determined as 2567 ± 299. Moreover, the α-glucosidase inhibition result in series [1] (10 μM) is given as “‐”. Moreover, testing at 50 µM in series [1] (50 μM) gave an inhibition of 9.01 ± 16.4%. In series [1] (100 μM), this compound had an inhibition at 100 µM of 9.75 ± 6.4%. In series [1] (200 μM), this compound showed an inhibition at 200 µM of 51.4% and a α-glucosidase inhibition of 31.35 ± 1.95%.

Consider `COC(=O)C(C)NC(=O)CN1C(=O)N/C(=C\c2ccc3c(c2)OCO3)C1=O` (stereo not drawn) [8 l], for which, in series [1] (10 μM), the α-glucosidase inhibition entry is given as “‐”. This compound returned an inhibition at 50 µM in series [1] (50 μM) of 7.7 ± 17.8%. For the same compound, the inhibition at 100 µM in series [1] (100 μM) was determined as 9.6 ± 23%. The inhibition at 200 µM in series [1] (200 μM) is 57.4 ± 4.05%.

As to `COC(=O)C(NC(=O)CN1C(=O)N/C(=C\c2ccc(C)cc2)C1=O)C(C)C` (stereo not drawn) [8 g], in series [1] (10 μM), the inhibition at 10 µM amounted to 1.8 ± 13.8%. In series [1] (50 μM), this compound had an inhibition at 50 µM of 4.13 ± 4.26%. Testing at 100 µM in series [1] (100 μM) gave an inhibition of 18 ± 3.95%. Further, in series [1] (200 μM), testing at 200 µM gave an inhibition of 45.2 ± 3.6%.

As to `CCOC(=O)C(NC(=O)CN1C(=O)N/C(=C\c2ccc3c(c2)OCO3)C1=O)C(C)C` (stereo not drawn) [8 n], the “Cytotoxicity, live cells” value in the series on Caco2 cell line was found to be 2039 ± 740. The compound further displayed an inhibition at 10 µM in series [1] (10 μM) of 0.73 ± 11.4%. In series [1] (50 μM), this compound gave an inhibition at 50 µM of 14 ± 16.4%. This compound came in with an inhibition at 100 µM in series [1] (100 μM) of 28.3 ± 17.3%. For the same compound, the inhibition at 200 µM in series [1] (200 μM) stood at 57.4 ± 2.79%.

As to `CCCC(NC(=O)CN1C(=O)N/C(=C\c2ccc3c(c2)OCO3)C1=O)C(=O)OC` (stereo not drawn) [8 o], at 10 µM the inhibition in series [1] (10 μM) was 11.3 ± 15.2%. Moreover, the inhibition at 50 µM in series [1] (50 μM) was 16 ± 17.9%. In series [1] (100 μM), this compound displayed an inhibition at 100 µM of 37.4 ± 24.9%. Further, the inhibition at 200 µM in series [1] (200 μM) is 57.8 ± 6.38%.

For `CCC(NC(=O)CN1C(=O)NC(=Cc2ccc(OC)cc2)C1=O)C(=O)OC` (stereo not drawn) [8 b], in series [1] (50 μM), the inhibition at 50 µM was 0.43 ± 16.8%. In addition, testing at 200 µM in series [1] (200 μM) gave an inhibition of 39.3 ± 1.01%.

On to `CCOC(=O)C(NC(=O)CN1C(=O)N/C(=C\c2ccc(C)cc2)C1=O)C(C)C` (stereo not drawn) [8 j], for which the “Cytotoxicity, live cells” value with Caco2 cell line came to 2565 ± 198. In series [1] (10 μM), this compound registered an inhibition at 10 µM of 6.49 ± 17.8%. At 50 µM the inhibition in series [1] (50 μM) was 13.8 ± 9.6%. This compound also returned an inhibition at 100 µM in series [1] (100 μM) of 19.2 ± 10.2%. Besides, at 200 µM the inhibition in series [1] (200 μM) was 48.5 ± 2.33%.

Turning to `O=C(O[C@@H]1Cc2c(O)cc(O)cc2O[C@@H]1c1cc(O)c(O)c(O)c1)c1cc(O)c(O)c(O)c1` [EGCG, Epigallocatechin gallate, reference compound], at 10 µM the inhibition in series [1] (10 μM) was 97.03 ± 0.41%. Besides, in series [1] (50 μM), 50 µM produced 97.03 ± 0.41% inhibition. This compound also showed an inhibition at 100 µM in series [1] (100 μM) of 97.03 ± 0.41%. The same compound showed an inhibition at 200 µM in series [1] (200 μM) of 97.03 ± 0.41%.

Regarding `CCCC(NC(=O)CN1C(=O)N/C(=C\c2ccc(C)cc2)C1=O)C(=O)OCC` (stereo not drawn) [8 k], the inhibition at 50 µM in series [1] (50 μM) stood at 14.5 ± 5.42%. In addition, the inhibition at 100 µM in series [1] (100 μM) amounted to 17 ± 8.54%. Further, testing at 200 µM in series [1] (200 μM) gave an inhibition of 41.9 ± 3.31%.
